{
  "source": "patent US20240384268A1",
  "about": "“Oligonucleotides” (Hudson Institute of Medical Research, priority 2021, published 2024)",
  "target": "T1, human TLR9 (Homo sapiens, UniProt Q9NR96)",
  "T1 construct": "HA; host or cells: 293XL-hTLR9-HA (HEK293)",
  "T1 sequence (Q9NR96 26-1032)": "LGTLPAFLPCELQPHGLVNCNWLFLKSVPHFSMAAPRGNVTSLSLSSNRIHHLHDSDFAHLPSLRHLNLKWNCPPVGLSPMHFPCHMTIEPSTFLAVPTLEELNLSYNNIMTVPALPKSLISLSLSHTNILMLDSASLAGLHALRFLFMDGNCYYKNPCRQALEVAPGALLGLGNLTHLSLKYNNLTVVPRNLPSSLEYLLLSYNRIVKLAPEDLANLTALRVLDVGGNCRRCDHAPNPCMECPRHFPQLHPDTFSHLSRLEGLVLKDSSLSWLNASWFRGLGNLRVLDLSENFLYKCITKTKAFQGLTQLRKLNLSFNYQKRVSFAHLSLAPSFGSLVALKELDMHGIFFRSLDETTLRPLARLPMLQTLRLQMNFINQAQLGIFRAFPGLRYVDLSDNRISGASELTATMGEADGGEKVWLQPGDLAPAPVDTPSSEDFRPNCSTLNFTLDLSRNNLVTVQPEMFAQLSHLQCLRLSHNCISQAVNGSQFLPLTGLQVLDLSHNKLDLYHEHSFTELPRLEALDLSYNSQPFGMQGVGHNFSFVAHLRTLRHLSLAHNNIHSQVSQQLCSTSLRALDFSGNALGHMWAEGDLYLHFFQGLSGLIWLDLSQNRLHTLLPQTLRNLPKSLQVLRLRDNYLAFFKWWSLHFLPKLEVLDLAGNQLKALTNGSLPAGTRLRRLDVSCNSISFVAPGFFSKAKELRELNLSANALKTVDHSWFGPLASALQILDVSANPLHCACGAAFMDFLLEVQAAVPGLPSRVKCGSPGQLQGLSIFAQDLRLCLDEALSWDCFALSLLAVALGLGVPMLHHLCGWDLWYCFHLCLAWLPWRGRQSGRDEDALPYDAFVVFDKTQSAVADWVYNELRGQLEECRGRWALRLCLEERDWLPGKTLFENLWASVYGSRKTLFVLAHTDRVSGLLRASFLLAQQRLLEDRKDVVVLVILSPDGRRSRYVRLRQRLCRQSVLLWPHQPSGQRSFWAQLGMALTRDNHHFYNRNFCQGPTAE",
  "assay": "HEK-TLR9 NF-κB-luciferase reporter, ODN2006 stimulation",
  "type": "cell-based",
  "details": "for inhibition of TLR9 sensing of ODN2006 (in words) / TLR9-500 nM: averaged NF-κB-Luciferase relative to ODN2006: HEK-TLR9; for inhibition of TLR9 sensing of ODN2006 (in words): 500 nM 2′OMe or PS oligos, 200 nM ODN2006; for TLR9-500 nM: averaged NF-κB-Luciferase relative to ODN2006: 500 nM ASO 45 min, then 200 nM ODN2006 overnight, percentage of ODN2006 only; for TLR9 100 nM (averaged NF-κB-Luciferase level relative to ODN2006 condition): ASO 100 nM; for TLR9 100 nM (averaged NF-κB-Luciferase level relative to ODN2006 condition) / TLR9 500 nM (averaged NF-κB-Luciferase level relative to ODN2006 condition): relative to ODN2006 only, given as fraction; for TLR9 500 nM (averaged NF-κB-Luciferase level relative to ODN2006 condition): ASO 500 nM",
  "note": "In the oligonucleotide strings, read from the 5' end, every base follows the letter of its sugar. An asterisk marks phosphorothioate; unmarked linkages are phosphodiester. Other units and linkages are bracketed, terminal groups are in braces. A string of capitals states the bases alone. d = 2'-deoxy (DNA); m = 2'-O-methyl",
  "data": [
    {"substance": "mC*mU*mU*mG*mU*G*A*A*A*A*G*A*T*T*A*mU*mC*mU*mU*mC (mC*mU*mU*mG*mU*dG*dA*dA*dA*dA*dG*dA*dT*dT*dA*mU*mC*mU*mU*mC) [[CDKN2B-AS1]2139]", "values": [
      {"measurement": "inhibition of TLR9 sensing of ODN2006 (in words)", "result": "strongly inhibited TLR9"},
      {"measurement": "inhibition of TLR9 sensing of ODN2006 (in words)", "setting": "listed as ASO2139", "result": "significantly increased TLR9 inhibition"},
      {"measurement": "TLR9-500 nM: averaged NF-κB-Luciferase relative to ODN2006", "result": 34.91, "unit": "%"}
    ]},
    {"substance": "mC*mA*mG*mU*mC*T*C*C*A*T*G*T*C*C*C*mA*mG*mG*mC*mC (mC*mA*mG*mU*mC*dT*dC*dC*dA*dT*dG*dT*dC*dC*dC*mA*mG*mG*mC*mC; antisense) [[CDKN2B-AS1]2233]", "values": [
      {"measurement": "TLR9-500 nM: averaged NF-κB-Luciferase relative to ODN2006", "result": 55.13, "unit": "%"}
    ]},
    {"substance": "mG*mU*mG*mU*mU*T*T*T*A*A*T*T*T*T*G*mU*mA*mG*mA*mG (mG*mU*mG*mU*mU*dT*dT*dT*dA*dA*dT*dT*dT*dT*dG*mU*mA*mG*mA*mG) [[CDKN2B-AS1]611]", "values": [
      {"measurement": "TLR9-500 nM: averaged NF-κB-Luciferase relative to ODN2006", "result": 98.50, "unit": "%"}
    ]},
    {"substance": "CTTGAAGCATCGTATC (antisense; LNA-modified, pattern not given here) [CTNN2B-3648 LNA KL]", "values": [
      {"measurement": "TLR9 100 nM (averaged NF-κB-Luciferase level relative to ODN2006 condition)", "result": 0.899},
      {"measurement": "TLR9 500 nM (averaged NF-κB-Luciferase level relative to ODN2006 condition)", "result": 0.483}
    ]},
    {"substance": "AACACTTCGTGGGGTC (antisense; LNA-modified, pattern not given here) [HPRT LNA-666 V1]", "values": [
      {"measurement": "TLR9 100 nM (averaged NF-κB-Luciferase level relative to ODN2006 condition)", "result": 1.104},
      {"measurement": "TLR9 500 nM (averaged NF-κB-Luciferase level relative to ODN2006 condition)", "result": 0.475}
    ]},
    {"substance": "GCACTTCAGTCTGAGC (antisense; LNA-modified, pattern not given here) [MB21D1-719 LNA KL]", "values": [
      {"measurement": "TLR9 100 nM (averaged NF-κB-Luciferase level relative to ODN2006 condition)", "result": 0.673},
      {"measurement": "TLR9 500 nM (averaged NF-κB-Luciferase level relative to ODN2006 condition)", "result": 0.144}
    ]},
    {"substance": "AGGTCTTGGCTTCGTG (antisense; LNA-modified, pattern not given here) [MB21D1-524 LNA V1]", "values": [
      {"measurement": "TLR9 100 nM (averaged NF-κB-Luciferase level relative to ODN2006 condition)", "result": 0.975},
      {"measurement": "TLR9 500 nM (averaged NF-κB-Luciferase level relative to ODN2006 condition)", "result": 0.383}
    ]},
    {"substance": "TCCTTGCACGTGGCTT (antisense; LNA-modified, pattern not given here) [EGFR-1014 LNA V1]", "values": [
      {"measurement": "TLR9 100 nM (averaged NF-κB-Luciferase level relative to ODN2006 condition)", "result": 1.152},
      {"measurement": "TLR9 500 nM (averaged NF-κB-Luciferase level relative to ODN2006 condition)", "result": 1.027}
    ]},
    {"substance": "TCCACAATCAAGACAT (antisense; LNA-modified, pattern not given here) [HPRT LNA-551 KL]", "values": [
      {"measurement": "TLR9 100 nM (averaged NF-κB-Luciferase level relative to ODN2006 condition)", "result": 0.851},
      {"measurement": "TLR9 500 nM (averaged NF-κB-Luciferase level relative to ODN2006 condition)", "result": 0.308}
    ]},
    {"substance": "GGCACTTTGCCTCCTT (antisense; LNA-modified, pattern not given here) [EGFR-2859 LNA V1]", "values": [
      {"measurement": "TLR9 100 nM (averaged NF-κB-Luciferase level relative to ODN2006 condition)", "result": 1.092},
      {"measurement": "TLR9 500 nM (averaged NF-κB-Luciferase level relative to ODN2006 condition)", "result": 0.788}
    ]},
    {"substance": "CGCTTTTCTGTCTGGT (antisense; LNA-modified, pattern not given here) [CTNN2B-311 LNA KL]", "values": [
      {"measurement": "TLR9 100 nM (averaged NF-κB-Luciferase level relative to ODN2006 condition)", "result": 0.827},
      {"measurement": "TLR9 500 nM (averaged NF-κB-Luciferase level relative to ODN2006 condition)", "result": 0.178}
    ]},
    {"substance": "AGGCCCTTCGCACTTC (antisense; LNA-modified, pattern not given here) [EGFR-1225 LNA V1]", "values": [
      {"measurement": "TLR9 100 nM (averaged NF-κB-Luciferase level relative to ODN2006 condition)", "result": 0.576},
      {"measurement": "TLR9 500 nM (averaged NF-κB-Luciferase level relative to ODN2006 condition)", "result": 0.211}
    ]},
    {"substance": "AGCTTCGAGGCCCCAG (antisense; LNA-modified, pattern not given here) [MB21D1-616 LNA V1]", "values": [
      {"measurement": "TLR9 100 nM (averaged NF-κB-Luciferase level relative to ODN2006 condition)", "result": 0.114},
      {"measurement": "TLR9 500 nM (averaged NF-κB-Luciferase level relative to ODN2006 condition)", "result": 0.085}
    ]},
    {"substance": "GATGGCCTCCCATCTC (antisense; LNA-modified, pattern not given here) [HPRT LNA-331 V1]", "values": [
      {"measurement": "TLR9 100 nM (averaged NF-κB-Luciferase level relative to ODN2006 condition)", "result": 1.033},
      {"measurement": "TLR9 500 nM (averaged NF-κB-Luciferase level relative to ODN2006 condition)", "result": 0.476}
    ]},
    {"substance": "CCAACACTTCGTGGGG (antisense; LNA-modified, pattern not given here) [HPRT LNA-668 V1]", "values": [
      {"measurement": "TLR9 100 nM (averaged NF-κB-Luciferase level relative to ODN2006 condition)", "result": 1.065},
      {"measurement": "TLR9 500 nM (averaged NF-κB-Luciferase level relative to ODN2006 condition)", "result": 0.610}
    ]}
  ]
}
